Measured values as given in PubChem BioAssay AID248 (DTP/NCI, 2004).
Several values for one entry are separate records, joined by “and”; a condition that tells them apart may be missing. Equal values may be shown once. Toxic doses and inconclusive results are not listed. Cut-off read from the data, not from the text of the source: active = T/C of 150% or more; inactive = T/C below 125%.

Test system: L1210 leukemia ip in BDF1 mice, survival T/C
Assay: NCI In Vivo Anticancer Drug Screen. Data for tumor model L1210 Leukemia (intraperitoneal) in B6D2F1 (BDF1) mice
Conditions: endpoint: mean survival time, higher = longer survival
Outline: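 Transplanted-tumor mice were given test agent; controls received vehicle only. Survival readings from the two groups were divided (treated over control).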

[1] = dose: 50.0 mg/kg/injection, schedule: Q01DX001 (ip), vehicle: saline
[2] = dose: 100.0 mg/kg/injection, schedule: Q01DX001 (ip), vehicle: saline
[3] = dose: 200.0 mg/kg/injection, schedule: Q01DX001 (ip), vehicle: saline
[4] = dose: 400.0 mg/kg/injection, schedule: Q01DX001 (ip), vehicle: saline
[5] = dose: 100.0 mg/kg/injection, schedule: Q01DX001 (ip), vehicle: carboxymethylcellulose (CMC)
[6] = dose: 200.0 mg/kg/injection, schedule: Q01DX001 (ip), vehicle: carboxymethylcellulose (CMC)
[7] = dose: 400.0 mg/kg/injection, schedule: Q01DX001 (ip), vehicle: carboxymethylcellulose (CMC)
[8] = dose: 100.0 mg/kg/injection, schedule: Q04DX003 (ip), vehicle: Klucel (hydroxypropylcellulose) (HPC)
[9] = dose: 25.0 mg/kg/injection, schedule: Q01DX009 (ip), vehicle: saline with Tween-80
[10] = dose: 50.0 mg/kg/injection, schedule: Q01DX009 (ip), vehicle: saline with Tween-80
[11] = dose: 100.0 mg/kg/injection, schedule: Q01DX009 (ip), vehicle: saline with Tween-80

Measured: T/C

COc1c(C)c2c(c(O)c1C/C=C(\C)CCC(=O)O)C(=O)OC2
inactive: dose: 12.5 mg/kg/injection, schedule: Q01DX001 (ip), vehicle: saline 96 % of control | dose: 25.0 mg/kg/injection, schedule: Q01DX001 (ip), vehicle: saline 100 % of control | dose: 25.0 mg/kg/injection, schedule: Q01DX009 (ip), vehicle: saline 102 % of control | [1] 103 % of control | dose: 50.0 mg/kg/injection, schedule: Q01DX009 (ip), vehicle: saline 98 % of control | [2] 100 % of control | dose: 100.0 mg/kg/injection, schedule: Q01DX009 (ip), vehicle: saline 107 % of control | dose: 100.0 mg/kg/injection, schedule: Q04DX002 (ip), vehicle: Klucel (hydroxypropylcellulose) (HPC) 104 % of control | [3] 100 % of control | dose: 200.0 mg/kg/injection, schedule: Q01DX009 (ip), vehicle: saline 118 % of control | dose: 200.0 mg/kg/injection, schedule: Q04DX002 (ip), vehicle: Klucel (hydroxypropylcellulose) (HPC) 112 % of control | [4] 100 % of control | dose: 400.0 mg/kg/injection, schedule: Q01DX009 (ip), vehicle: saline 124 % of control | dose: 400.0 mg/kg/injection, schedule: Q04DX002 (ip), vehicle: Klucel (hydroxypropylcellulose) (HPC) 112 % of control

O=C(Nc1c(Br)cc2c(c1Br)Cc1cc(Br)ccc1-2)C(Cl)Cl
inactive: [5] 98 % of control | [6] 91 % of control | [7] 98 % of control

Oc1ccc(/C=N/N2CCOCC2)c(O)c1
inactive: [5] 100 % of control and 110 % of control | dose: 100.0 mg/kg/injection, schedule: Q01DX009 (ip), vehicle: carboxymethylcellulose (CMC) 97 % of control | dose: 100.0 mg/kg/injection, schedule: Q04DX002 (ip), vehicle: carboxymethylcellulose (CMC) 92 % of control and 89 % of control | dose: 100.0 mg/kg/injection, schedule: Q04DX003 (ip), vehicle: carboxymethylcellulose (CMC) 95 % of control and 103 % of control | [6] 98 % of control and 110 % of control | dose: 200.0 mg/kg/injection, schedule: Q01DX009 (ip), vehicle: carboxymethylcellulose (CMC) 95 % of control | dose: 200.0 mg/kg/injection, schedule: Q04DX002 (ip), vehicle: carboxymethylcellulose (CMC) 96 % of control and 103 % of control | dose: 200.0 mg/kg/injection, schedule: Q04DX003 (ip), vehicle: carboxymethylcellulose (CMC) 95 % of control and 90 % of control | [7] 98 % of control and 110 % of control | dose: 400.0 mg/kg/injection, schedule: Q01DX009 (ip), vehicle: carboxymethylcellulose (CMC) 88 % of control | dose: 400.0 mg/kg/injection, schedule: Q04DX002 (ip), vehicle: carboxymethylcellulose (CMC) 95 % of control and 86 % of control | dose: 400.0 mg/kg/injection, schedule: Q04DX003 (ip), vehicle: carboxymethylcellulose (CMC) 95 % of control and 87 % of control

N=C(N)c1cccc(NC(=O)Nc2cccc(C(=N)N)c2)c1
inactive: dose: 15.0 mg/kg/injection, schedule: Q01DX Z (ip), vehicle: saline 104 % of control | dose: 30.0 mg/kg/injection, schedule: Q01DX Z (ip), vehicle: saline 104 % of control

O=C(CCCCl)NCc1ccccc1[N+](=O)[O-]
inactive: dose: 100.0 mg/kg/injection, schedule: Q01DX009 (ip), vehicle: Klucel (hydroxypropylcellulose) (HPC) 96 % of control | [8] 101 % of control | dose: 200.0 mg/kg/injection, schedule: Q01DX009 (ip), vehicle: Klucel (hydroxypropylcellulose) (HPC) 90 % of control | dose: 200.0 mg/kg/injection, schedule: Q04DX003 (ip), vehicle: Klucel (hydroxypropylcellulose) (HPC) 93 % of control | dose: 400.0 mg/kg/injection, schedule: Q01DX009 (ip), vehicle: Klucel (hydroxypropylcellulose) (HPC) 91 % of control | dose: 400.0 mg/kg/injection, schedule: Q04DX003 (ip), vehicle: Klucel (hydroxypropylcellulose) (HPC) 97 % of control

C#CC(CC(C)CC(C)(C)C)N(C)C (centres undefined)
inactive: [9] 92 % of control | [10] 92 % of control | [11] 101 % of control

COCC1OC1(C(=O)c1ccccc1Cl)c1ccccc1Cl (centres undefined)
inactive: [2] 107 % of control | [3] 100 % of control | [4] 96 % of control

COc1[nH]c(=O)[nH]c(=O)c1OP(=O)(OC)OC
inactive: [1] 98 % of control | [2] 98 % of control | [3] 98 % of control | [4] 89 % of control

O=C(O)c1cc(Cl)c(Cl)s1
inactive: dose: 25.0 mg/kg/injection, schedule: Q04DX003 (ip), vehicle: Klucel (hydroxypropylcellulose) (HPC) 101 % of control | dose: 50.0 mg/kg/injection, schedule: Q04DX003 (ip), vehicle: Klucel (hydroxypropylcellulose) (HPC) 100 % of control | [8] 103 % of control

CCN(C(C)C)C(C)C
inactive: [9] 101 % of control | [10] 106 % of control | [11] 96 % of control | dose: 100.0 mg/kg/injection, schedule: Q04DX003 (ip), vehicle: saline with Tween-80 93 % of control
